# Laboratory results as given in PubChem BioAssay (NCI).
#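 GI50 is the concentration that inhibits growth by half. Definition used: TGI = concentration required for complete inhibition of growth.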
# Tests used:
# Assay in all cases: growth of human tumour cells (NCI), 384-well format
# NCI-H226 lung = system: NCI-H226 lung
# OVCAR-8 ovarian = system: OVCAR-8 ovarian
# UACC-62 melanoma = system: UACC-62 melanoma
# SF-539 CNS = system: SF-539 CNS
# NCI-H322M lung = system: NCI-H322M lung
# SNB-75 CNS = system: SNB-75 CNS
# NCI-H460 NSCLC = system: NCI-H460 NSCLC
# IGROV1 ovarian = system: IGROV1 ovarian
# DU-145 prostate = system: DU-145 prostate
# UACC-257 melanoma = system: UACC-257 melanoma
# M14 melanoma = system: M14 melanoma
# SK-MEL-2 melanoma = system: SK-MEL-2 melanoma
# UO-31 renal = system: UO-31 renal
# SN12C renal = system: SN12C renal
# MDA-MB-468 breast = system: MDA-MB-468 breast
# OVCAR-3 ovarian = system: OVCAR-3 ovarian
# HOP-62 NSCLC = system: HOP-62 NSCLC
# BT-549 breast = system: BT-549 breast
# HCT-15 colon = system: HCT-15 colon
# A498 renal = system: A498 renal
# 786-0 renal = system: 786-0 renal
# NCI-H522 lung = system: NCI-H522 lung
# HCT-116 colon = system: HCT-116 colon
# PC-3 prostate = system: PC-3 prostate
# HS 578T breast = system: HS 578T breast
# MOLT-4 leukemia = system: MOLT-4 leukemia
# SF-268 CNS = system: SF-268 CNS
# SW-620 colon = system: SW-620 colon
smiles,measurement,setting,value
Cc1cc(Oc2ccc3nc(COc4ccc(CC5SC(=O)NC5=O)cc4)n(C)c3c2)cc(C)c1N (stereo not given),TGI,NCI-H226 lung,46.7 µM
same,GI50,OVCAR-8 ovarian,22.4 µM
same,TGI,OVCAR-8 ovarian,53.7 µM
same,GI50,UACC-62 melanoma,17.7 µM
same,TGI,UACC-62 melanoma,31.9 µM
same,GI50,SF-539 CNS,17.5 µM
same,TGI,SF-539 CNS,33.9 µM
same,GI50,NCI-H322M lung,32.8 µM
same,TGI,NCI-H322M lung,77.4 µM
same,GI50,SNB-75 CNS,22 µM
same,TGI,SNB-75 CNS,50 µM
same,GI50,NCI-H460 NSCLC,15.9 µM
same,TGI,NCI-H460 NSCLC,31.9 µM
same,GI50,IGROV1 ovarian,29.6 µM
same,TGI,IGROV1 ovarian,79.5 µM
same,GI50,DU-145 prostate,19 µM
same,TGI,DU-145 prostate,36 µM
same,GI50,UACC-257 melanoma,24.5 µM
same,TGI,UACC-257 melanoma,48.6 µM
same,GI50,M14 melanoma,19.9 µM
same,TGI,M14 melanoma,39.9 µM
same,GI50,SK-MEL-2 melanoma,20.3 µM
same,TGI,SK-MEL-2 melanoma,35.6 µM
same,GI50,UO-31 renal,24.1 µM
same,TGI,UO-31 renal,56.9 µM
same,GI50,SN12C renal,28.7 µM
same,TGI,SN12C renal,> 100 µM
same,GI50,MDA-MB-468 breast,16.7 µM
same,TGI,MDA-MB-468 breast,36.2 µM
same,GI50,OVCAR-3 ovarian,19.1 µM
same,TGI,OVCAR-3 ovarian,35.8 µM
same,GI50,HOP-62 NSCLC,14.6 µM
same,TGI,HOP-62 NSCLC,35 µM
same,GI50,BT-549 breast,16.4 µM
same,TGI,BT-549 breast,31.2 µM
same,GI50,HCT-15 colon,21.7 µM
same,TGI,HCT-15 colon,43 µM
same,GI50,A498 renal,25.7 µM
same,TGI,A498 renal,62.9 µM
same,GI50,786-0 renal,30.2 µM
same,TGI,786-0 renal,> 100 µM
same,GI50,NCI-H522 lung,20.4 µM
same,TGI,NCI-H522 lung,41.4 µM
same,GI50,HCT-116 colon,15.4 µM
same,TGI,HCT-116 colon,30.6 µM
same,GI50,PC-3 prostate,17.3 µM
same,TGI,PC-3 prostate,35.4 µM
same,GI50,HS 578T breast,18.6 µM
same,TGI,HS 578T breast,42.6 µM
same,GI50,MOLT-4 leukemia,14 µM
same,TGI,MOLT-4 leukemia,27.1 µM
same,GI50,SF-268 CNS,23.9 µM
same,TGI,SF-268 CNS,57.7 µM
same,GI50,SW-620 colon,25.6 µM
same,TGI,SW-620 colon,68.8 µM
